The source of these data is US12049439B2 (OrsoBio, Inc., priority 2018, dated 2024).

Each structure is given as a SMILES string.

This test deals with PC-3 cells. The test can be described thus: PC-3 Oxygen Rate Consumption (OCR) Assay. The conditions noted are these: Homo sapiens, 0.05 h, medium with 2% FBS, OCR at 3-min post-injection normalized to % increase over DMSO-treated cells, concentration for half-maximal OCR increase, read-out: EC50-PC3-OCR-FBS-3min. In kind it is cell-based. The method, boiled down: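 PC-3 cells seeded a day before, equilibrated 1 h in XF medium with 10 mM glucose, 1 mM pyruvate, 2% FBS, non-CO2 at 37 °C. Compound injected after basal OCR reads; OCR at 3 min post-injection normalized as % increase over DMSO, EC50 = half-maximal increase; six replicates.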
For `CCS(=O)(=O)Nc1ccc(C(F)(F)F)cc1C(=O)NC12CCC(C#N)(CC1)CC2` [Example 120, N-(4-cyanobicyclo[2.2.2]octan-1-yl)-2-(ethylsulfonamido)-5-(trifluoromethyl)benzamide], the EC50 (commonly the concentration that produces a half-maximal response) is 8.01 µM.
Regarding `COc1ccc(S(=O)(=O)Nc2ccc(C(F)(F)F)cc2C(=O)NC23CCC(C#N)(CC2)CC3)cc1` [Example 121, N-(4-cyanobicyclo[2.2.2]octan-1-yl)-2-((4-methoxyphenyl)sulfonamido)-5-(trifluoromethyl)benzamide], the EC50 was 2.26 µM.
For `N#CC12CCC(NC(=O)c3cc(C(F)(F)F)ccc3NS(=O)(=O)c3ccccc3)(CC1)CC2` [Example 122, N-(4-cyanobicyclo[2.2.2]octan-1-yl)-2-(phenylsulfonamido)-5-(trifluoromethyl)benzamide] the value was 1.52 µM; for `CC(C)(C)S(=O)(=O)Nc1ccc(C#N)cc1C(=O)NC12CCC(C#N)(CC1)CC2` [Example 123, 5-cyano-N-(4-cyanobicyclo[2.2.2]octan-1-yl)-2-((1,1-dimethylethyl)sulfonamido)benzamide], 4.84 µM.
Consider `N#Cc1ccc(NS(=O)(=O)C2CC2)c(C(=O)NC23CCC(C#N)(CC2)CC3)c1` [Example 124, 5-cyano-N-(4-cyanobicyclo[2.2.2]octan-1-yl)-2-(cyclopropanesulfonamido)benzamide], for which the EC50 came to 79.4 µM.
Next, `N#CC12CCC(NC(=O)c3cc(C(F)(F)F)ccc3NS(=O)(=O)C3CC3)(CC1)CC2` [Example 125, N-(4-cyanobicyclo[2.2.2]octan-1-yl)-2-(cyclopropanesulfonamido)-5-(trifluoromethyl)benzamide]: 12.4 µM; `CCCS(=O)(=O)Nc1ccc(C(F)(F)F)cc1C(=O)NC12CCC(C#N)(CC1)CC2` [Example 126, N-(4-cyanobicyclo[2.2.2]octan-1-yl)-2-(propylsulfonamido)-5-(trifluoromethyl)benzamide]: 5.12 µM.
On to `CCCCS(=O)(=O)Nc1ccc(C(F)(F)F)cc1C(=O)NC12CCC(C#N)(CC1)CC2` [Example 127, 2-(butylsulfonamido)-N-(4-cyanobicyclo[2.2.2]octan-1-yl)-5-(trifluoromethyl)benzamide], for which the EC50 worked out at 2.41 µM.
Next, `COCCS(=O)(=O)Nc1ccc(C(F)(F)F)cc1C(=O)NC12CCC(C#N)(CC1)CC2` [Example 128, N-(4-cyanobicyclo[2.2.2]octan-1-yl)-2-((2-methoxyethyl)sulfonamido)-5-(trifluoromethyl)benzamide]: 15.4 µM; `CCCCS(=O)(=O)Nc1ccc(C#N)cc1C(=O)NC12CCC(C#N)(CC1)CC2` [Example 129, 2-(butylsulfonamido)-5-cyano-N-(4-cyanobicyclo[2.2.2]octan-1-yl)benzamide]: 24.3 µM; `N#CC12CCC(NC(=O)c3cc(C(F)(F)F)ccc3NS(=O)(=O)N3CCCC3)(CC1)CC2` [Example 130, N-(4-cyanobicyclo[2.2.2]octan-1-yl)-2-(pyrrolidine-1-sulfonamido)-5-(trifluoromethyl)benzamide]: 4.68 µM.
For the molecule `N#Cc1ccc(NS(=O)(=O)N2CCCC2)c(C(=O)NC23CCC(C#N)(CC2)CC3)c1` [Example 131, 5-cyano-N-(4-cyanobicyclo[2.2.2]octan-1-yl)-2-(pyrrolidine-1-sulfonamido)benzamide], the EC50 turned out to be 19.5 µM.
For `N#Cc1ccc(NS(=O)(=O)N2CCC2)c(C(=O)NC23CCC(C#N)(CC2)CC3)c1` [Example 132, 2-(azetidine-1-sulfonamido)-5-cyano-N-(4-cyanobicyclo[2.2.2]octan-1-yl)benzamide] the value was 50.9 µM; for `CCS(=O)(=O)Nc1cc(C(F)(F)F)ccc1C(=O)NC12CCC(C#N)(CC1)CC2` [Example 133, N-(4-cyanobicyclo[2.2.2]octan-1-yl)-2-(ethylsulfonamido)-4-(trifluoromethyl)benzamide], 14.7 µM.
